Six molecules from patent US8563603B2, “Polycyclic compounds and methods related thereto” (Cornell University, priority 2008, dated 2013) can be followed below.

Experiment [1] relates to human breast cancer cell line MD-MBA-231. The experiment is described as follows: Bioactivity-guided percent apoptosis, Annexin V/Propidium iodide FACS, 48-h incubation. Set-up: key: % of cells (Annexin V/PI FACS). Type of experiment: cell-based. Conditions: Table E5; Dose 100. As to the method:
Apoptosis was evaluated against human breast cancer cell line MD-MBA-231. Cells were maintained in RPMI 1640 medium (PAA Laboratories GmbH, Teddington Middlesex, UK) supplemented with 10% heat-inactivated tetracycline-free fetal calf serum (PAA Laboratories) and 2 mM L-glutamine, 100 units/ml penicillin, and 100 μg/ml streptomycin (Gibco, Grand Island, N.Y.). Cells were propagated and cultured at 37° C. in a 100% relative humidified atmosphere consisting of 5% C02 and 95% air. Cells were trypsinized with 0.05% Trypsin-0.2% EDTA (w/v) solution.
The bioactivity-guided isolation of the compounds was performed using percent apoptosis in human breast cancer cells (cell line MD-MBA-231) as the reporter. Cells were seeded in a standard 24-well microtiter plate at a density of 1.5×10^4 cells/well in […] tissue culture medium. After a 24-h incubation period cells were treated with individual fractions from the wood of Guaiacum officinale L. Test compounds were mixed in solution using DMSO as vehicle (10 μg extract/1 ml DMSO), at 30 μl. Following a 48-h incubation period, the induction of apoptosis in cell cultures was analyzed by fluorescence-activated cell sorter (FACS Caliber Becton Dickinson, San Jose, Calif.), double staining with Annexin V/Propidium iodide.
Three fractions were chosen for further evaluation based on their apoptotic activity, yields, and simplicity of their HPLC profiles. Fraction 5 was obtained by combining F5 and F6, and fraction 13 by combining fractions 13 and 14. Fraction 8 was not combined with any other. Combinations were based on TLC profiles, (FIG. 17). The percent apoptosis was calculated by using Annexin V/FITC staining and flow cytometry (Table E4).

In another experiment the test system is cell line MD-MBA-231. The experiment is described as follows: Cell cycle analysis by DNA content (hypotonic PI staining, flow cytometry). Type of experiment: cell-based, human. To be noted: for % events in sub G0 (apoptotic events) / effect on cell populations in S-phase, significance / effect on cell population in G2/M / singlet count: 1.2, 6.0, 30.0 ppm; for % events in sub G0 (apoptotic events) / effect on cell populations in S-phase, significance / % of cells in S-phase / effect on cell population in G2/M / singlet count: 24 h. As to the method: Twenty-four hours after exposure to compounds, 25×10^4 cells in 1.5 ml cells were simply re-suspended following either the Annexin V/FITC assay or the trypsin procedures. Cells were centrifuged at 1000-x g at room temperature and washed in 0.5 ml of hypotonic staining solution. Cells were kept a minimum of 30 min. at 4° C. in the dark. Samples were usually analyzed by flow cytometry on the same day or at 24 hrs. Resulting DNA distributions were analyzed for the proportion of cells in apoptosis and in G0/G1, S, and G2/M phases of the cell cycle. Singlet events were gated and 10,000-20,000 events were acquired within the gated region. All experiments were repeated at least three times, each in duplicate.
The cell cycle comprises steps that regulate the correct temporal sequence of events that control the growth, reproduction and differentiation of cells. The cell cycle consists of 4 phases: G0/G1, S (DNA synthesis), G2, and M (mitosis). In addition, checkpoints located in the cell cycle transition ensure that cell growth and division occur in response to appropriate signals and environment. When proliferating, if cells are subjected to DNA damage the cell cycle temporarily pauses either at G1, S or G2 phase. Arrest at these checkpoints prevents DNA replication and mitosis in the presence of unrepaired DNA damage and presumably allows time for DNA repair to occur. The proportion of cells that arrest in G1, S or G2 after damage depends on cell type, growth conditions, type of damage and the checkpoints operative in the cells. Shifts in the redistribution of phases of the cell cycle in response to various stimuli can be readily assessed by flow cytometry. DNA content analysis with the use of PI is one of the most common assays. The use of intercalating dyes to measure DNA content are the most common and are usually sufficient to determine relative shifts in the phases of the cell cycle. The hypotonic solution lyses the plasma membrane and prevents many of the aggregate problems associated with fixed cells. Propidium Iodide(PI) passes through permeabilized cell membranes and intercalates with cellular DNA. Therefore, the intensity of the PI signal is directly proportional to DNA content. DNA content experiments determine the percent induction of apoptosis and relative distribution of the cell cycle phases.
The percent of apoptotic cells (cells with fractional DNA content; sub G1 cells) were established by estimating the percentage of events showing up in sub G0. The Sub-G1 method relies on the fact that after DNA fragmentation, there are small fragments of DNA that may be eluted. However in order to be seen in the Sub G1 area, a cell must have lost enough DNA to appear there; so if cells enter apoptosis from the S or G2/M phase of the cell cycle or if there is an aneuploid population undergoing apoptosis, they may not appear in the Sub G1 peak. The number of events in sub G1 (number of nuclear fragments) provides no information on the # of cells undergoing apoptosis.
A general note: Flow cytometry measures light scatter and fluorescence of single cells or particles in a stream.

Experiment [2] concerns Human breast cancer cell line MB-MDA-231. The experiment is described as follows: Annexin V FITC / PI apoptosis detection by flow cytometry, 24 h. The class given is cell-based. To be noted: 24 h; for early stage apoptosis, FITC (+)/PI (−) staining, significance: 1.2, 6.0, 30.0 ppm. As to the method:
Human breast cancer cell line MB-MDA-231 were cultured in Dulbecco's Modified Eagle's medium (DMEM-Sigma, D-5648), supplemented with 10% (heat-inactivated) Fetal Bovine Serum (Atlanta Biologicals, Inc.) and Antibiotic Solution, 100× (Sigma A-9909). Cells were gown at 37° C., at 5-7% CO2, and 95% humidity and were obtained from the American Type Culture Collection (ATCC). Cells were trypsinized with 0.05% Trypsin-0.2% EDTA (w/v) solution (Invitrogen Corporation, Carlsbad, Calif.).
The induction of apoptosis in MB-MDA-231 was analyzed using a well-validated Annexin V FITC apoptosis detection kit (Calbiochem), Darzynkiewicz, 1998. The phosphatidylserine (PS)-specific dye Annexin-V is used to detect apoptotic-specific changes to the organization of phospholipids leading to exposure of PS on the cell surface that precedes nuclear breakdown, DNA fragmentation, and the appearance of most apoptosis-associated molecules. For these studies cells were seeded at 25×10^4 cells/1.5 ml in a 24 well microtiter plate. Cells were allowed to adhere to plates for 24 h, and then exposed to lignans of the present invention at 5-fold dilutions of 30 μl, 6 μl, and 1.2 μl per well for 24 h. Test compounds were mixed in solution using DMSO as vehicle (10 mg extract/1 ml DMSO). Camptothecin was used as a positive control. Following the incubation period 700 μl of suspended cells were transferred to 15 ml conical tubes. Cells that remained adhered to the 24-well plates were gently washed with PBS (137 mM NaCl, 2.7 mM KCL, 4.3 mM Na2HPO4-7H2O, 1.4 mM KH2PO4, adjusted to pH 7.4), trypsinized with 1 ml of solution (0.05% Trypsin—0.2% EDTA [w/v]), and resuspended with the suspended cells/media collected in the 15 ml conical tubes from the previous step. 10 μl of media-binding reagent and 1.25 μl Annexin V-FITC was added to the 15 ml conical tubes containing both the 700 μl of suspended cells and the resuspended cells and incubated at room temperature for 15 min, at 18-24° C., in the dark. Tubes were centrifuged for 5 minutes at 1000×g at room temperature. Media was removed and cells were gently resuspended in 0.5 ml cold 1×binding buffer (dilution; 5× Binding Buffer concentrate 1:5 with dH2O) and placed on ice. 10 μl of propidium iodide was added to each tube. Cells were placed on ice away from light and analyzed immediately by flow cytometry. The dual fluorescence emissions of the respective dyes were detected in cell preparations on a BD-Biosciences FACS Aria high-speed flow cytometer/cell sorter utilizing a quartz cuvette for interrogation. To quantify the Annexin V (FL1 at 518 nm) and propidium iodide (620 nm) signals, apoptosis-induced cells (CPT) stained with FITC only and apoptosis-induced cells (CPT) labeled with only propidium iodide were utilized. Necessary adjustments were made to minimize overlap between these two measurements. Typically, 10,000-20,000 cells were scored for each sample and classified as either viable, early apoptotic, or late apoptotic or necrotic. All experiments were repeated at least three times, each in duplicate.
The principal of the Annexin V/FITC assay is that, Annexin V, an anticoagulant protein, preferentially binds negatively charged phospholipids. Early in the apoptotic process, phospholipid asymmetry is disrupted leading to the exposure of phosphatidylserine (PS) on the outer leaflet of the cytoplasmic membrane. Annexin V binds to the negatively charged calcium-dependent PS. Conjugating FITC to Annexin V with simultaneous propidium iodide (PI) staining allows bivariate analysis of intact cells. Live, healthy cells are double negative, FITC (−)/PI (−), and are seen in the lower left quadrant [A3] of FACS cytograms. Cells that are FITC (+)/PI (−) [A4] are early apoptotic. Cell populations that are advanced apoptotic or necrotic are FITC (+)/PI (+) are located in quadrant [A2]. […]

Regarding `C=C1[C@@H](c2ccc(O)c(OC)c2)O[C@@H](c2ccc(O)c(OC)c2)[C@@]12CCC1=C(C2)[C@@H](c2ccc(O)c(OC)c2)O[C@H]1c1ccc(O)c(OC)c1` [I-a], in experiment [1], the Apoptosis was determined as 90.12 and the Necrosis is listed as 0.82. In the experiment with cell line MD-MBA-231, the “% events in sub G0 (apoptotic events)” value was “strong apoptotic activity at 6.0 ppm, but then declined somewhat at 30 ppm” and the “effect on cell populations in S-phase, significance” value (shortened to “effect … significance”) was “progressive decrease in % S-phase events with increasing drug concentration”. Also, in the experiment on cell line MD-MBA-231 (30 ppm), the “% of cells in S-phase” value is less than 3%.

In the case of `C=C1[C@@H](c2ccc(O)c(OC)c2)O[C@@H](c2ccc(O)c(OC)c2)[C@]12CCC1=C(C2)[C@@H](c2ccc(O)c(OC)c2)O[C@H]1c1ccc(O)c(OC)c1` [I-b], the “late stage apoptotic cell death count, FITC (+)/PI (+)” value in experiment [2] (highest concentration) is given as 63%. For the same molecule, in experiment [1], the Apoptosis is 81.37 and the Necrosis came out at 0.41. For the same molecule, in the experiment on cell line MD-MBA-231, the “% events in sub G0 (apoptotic events)” value was “significance at 6 and 30 ppm”; the “effect … significance” value is recorded as “significant decrease in cell populations at the two highest doses”. Also, the “% of cells in S-phase” value with cell line MD-MBA-231 (30 ppm) was 4.5%.

For the molecule `COc1cc([C@H]2O[C@@H](c3ccc(O)c(OC)c3)[C@H](C)[C@@H]2C)ccc1O` [I-c], the “early stage apoptosis, FITC (+)/PI (−) staining, significance” value (from here on “early stage apoptosis, FITC … significance”) in experiment [2] is on record as “significantly increased”. Besides, the “early apoptosis surpassing that induced by camptothecin” value in experiment [2] (30 ppm) came out at 10%. Besides, in experiment [1], the Apoptosis turned out to be 92.9 and the Necrosis came out at 1.81. In the experiment with cell line MD-MBA-231, the “% events in sub G0 (apoptotic events)” value is “increased and significantly induced apoptotic activity at 30.0 ppm”; the “effect on cell population in G2/M” value is “significant reduction of cells at 6 and 30 ppm”; the “effect … significance” value is listed as “inhibited cells from entering this stage as well in a concentration-dependent manner”; the singlet count entry is “reached minimal levels at 30 ppm”.

Consider `COc1cc([C@H]2O[C@H](c3ccc(O)c(OC)c3)[C@@H](C)[C@H]2C)ccc1O` [I-e], for which the “early stage apoptosis, FITC … significance” value in experiment [2] is given as “did not show any significant increases”. For the same molecule, in the experiment on cell line MD-MBA-231, the “% events in sub G0 (apoptotic events)” value is “without showing increased number of events in sub G0”; the “effect on cell population in G2/M” value is “significant blockage in G2/M at 30 ppm”; the “effect … significance” value is “significance at the highest concentration”; the singlet count entry is reported as “approximately equal level of cell death as shown with untreated cells”. Also, in the experiment on cell line MD-MBA-231 (highest treatment), the “increase in % events at G2/M over isonectandrin B and nectandrin B” value was “approximately 3 fold”; the “increase in % events at G2/M over untreated cells” value turned out to be 8%.

Consider `COc1cc(C[C@@H](C)[C@@H](C)Cc2ccc(O)c(OC)c2)ccc1O` [I-f], for which, in the experiment with cell line MD-MBA-231, the “% events in sub G0 (apoptotic events)” value is listed as “no significant increases” and the “effect … significance” value was “did so at 30 ppm”. The “% of cells in S-phase” value in the experiment with cell line MD-MBA-231 (30 ppm) is 6%.

On to `COc1cc([C@H]2O[C@@H](c3ccc(O)c(OC)c3)[C@@H](C)[C@H]2C)ccc1O` [I-d], for which, in experiment [2], the “early stage apoptosis, FITC … significance” value is reported as “significantly increased”. Also, in experiment [2] (6.0 ppm), the “early apoptosis surpassing that induced by camptothecin” value is 10%. The “early apoptosis surpassing that induced by camptothecin” value in experiment [2] (30 ppm) came to 24%. Moreover, in experiment [1], the Apoptosis is 91.14 and the Necrosis was 0.35. In the experiment with cell line MD-MBA-231, the “% events in sub G0 (apoptotic events)” value was “increased and significantly induced apoptotic activity at 30.0 ppm”; the “effect on cell population in G2/M” value is recorded as “lowest accumulation at 30 ppm”; the “effect … significance” value is reported as “significantly inhibited cell populations in S-phase at all doses”; the singlet count entry is “significance decreases at all doses”. Moreover, the “% of cells in S-phase” value in the experiment with cell line MD-MBA-231 (1.2 ppm) is reported as 8.2%. In the experiment on cell line MD-MBA-231 (6.0 ppm), the “% of cells in S-phase” value was found to be 4.7%. In the experiment with cell line MD-MBA-231 (30 ppm), the “% of cells in S-phase” value is on record as 0%.
